Laboratory results from patent publication US20040087661A1, “Treatment of CNS disorders with trans 4-3(3,4-dichlorophenyl)-1,2,3,4-tetrahydro-N-methyl-1-napthalenamine” (Sepracor, Inc., priority 2002, published 2004).
Like-named read-outs stand apart in the source and are kept apart here.

Legend:
[1] = target: T1, functional uptake of norepinephrine (NE) (Rattus norvegicus, UniProt Q63380); experiment: Norepinephrine functional uptake assay in rat hypothalamus synaptosomes; type: biochemical; settings: read-out: inhibition of NE uptake (no IC50 determined)
T1 construct: synaptosomes isolated at Cerep in a 0.32 M sucrose buffer from a male Wistar rat hypothalamus; tissue Cerep; host or cells: male Wistar rat hypothalamus synaptosomes
Method: Norepinephrine Functional Uptake Assay
Characterization of norepinephrine uptake is performed using synaptosomes isolated at Cerep in a 0.32 M sucrose buffer from a male Wistar rat hypothalamus. The uptake of radiolabeled norepinephrine by synaptosomes (100 μg of proteins/point) is allowed by incubating them in a deep well for 20 minutes at 37° C. in presence of test compounds and [^3H]-norepinephrine (0.1 μCi/point).
Synaptosomes and [^3H]-norepinephrine are prepared in a Krebs buffer pH 7.4 containing 25 mM NaHCO3, 11 mM glucose and 50 μM ascorbic acid. This incubation buffer is oxygenated during 5 minutes before incubation. Basal control is incubated for 20 minutes at 4° C. in order to avoid any uptake. Following this incubation the uptake is stopped by filtration through an “unifilter 96-wells GFB” Packard plate washed with Krebs buffer containing 25 mM NaHCO3 in order to eliminate the free [^3H]-norepinephrine. The radioactivity associated to the synaptosomes retained onto the unifilter corresponding to the uptake is then measured with a microplate scintillation counter Topcount, Packard using a scintillation liquid microscint 0, Packard.

[2] = target: T2, functional uptake of dopamine (DA) (Rattus norvegicus, UniProt P23977); experiment: Dopamine functional uptake assay in rat striatum synaptosomes; type: biochemical; settings: initial test at 10 μM in duplicate; read-out: inhibition of DA uptake (no IC50 determined)
T2 construct: synaptosomes isolated at Cerep in a 0.32 M sucrose buffer from a male Wistar rat striatum; tissue Cerep; host or cells: male Wistar rat striatum synaptosomes
T2 sequence (P23977 whole entry): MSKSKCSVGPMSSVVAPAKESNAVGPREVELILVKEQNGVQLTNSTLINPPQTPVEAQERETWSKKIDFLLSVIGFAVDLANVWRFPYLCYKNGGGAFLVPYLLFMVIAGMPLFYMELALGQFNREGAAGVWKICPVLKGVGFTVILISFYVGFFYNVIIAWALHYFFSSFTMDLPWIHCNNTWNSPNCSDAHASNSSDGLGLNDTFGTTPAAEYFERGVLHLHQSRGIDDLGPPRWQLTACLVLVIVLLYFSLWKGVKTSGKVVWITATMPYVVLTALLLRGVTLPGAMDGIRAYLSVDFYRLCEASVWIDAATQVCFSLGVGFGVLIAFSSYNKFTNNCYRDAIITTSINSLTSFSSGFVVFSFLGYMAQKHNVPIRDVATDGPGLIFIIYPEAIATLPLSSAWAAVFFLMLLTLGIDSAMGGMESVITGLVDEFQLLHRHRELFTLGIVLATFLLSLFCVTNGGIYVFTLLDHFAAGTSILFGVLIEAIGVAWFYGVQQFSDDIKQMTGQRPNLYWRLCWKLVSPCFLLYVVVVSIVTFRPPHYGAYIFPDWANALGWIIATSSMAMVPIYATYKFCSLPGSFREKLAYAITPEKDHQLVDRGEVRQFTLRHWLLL
Method: Dopamine Functional Uptake Assay
Characterization of dopamine uptake is performed using synaptosomes isolated at Cerep in a 0.32 M sucrose buffer from a male Wistar rat striatum. The uptake of radiolabelled dopamine by synaptosomes (20 μg of proteins/point) is allowed by incubating them in a deep well for 15 minutes at 37° C. in presence of test compounds and [^3H]-dopamine (0.1 μCi/point).
Synaptosomes and [^3H]-dopamine are prepared in a Krebs buffer pH 7.4 containing 25 mM NaHCO3, 11 mM glucose and 50 μM ascorbic acid. This incubation buffer is oxygenated during 5 minutes before incubation. Basal control is incubated for 15 minutes at 4° C. in order to avoid any uptake. Following this incubation the uptake is stopped by filtration through an “unifilter 96-wells GFB” Packard plate washed with Krebs buffer containing 25 mM NaHCO3 in order to eliminate the free [^3H]-dopamine. The radioactivity associated to the synaptosomes retained onto the unifilter corresponding to the uptake is then measured with a microplate scintillation counter Topcount, Packard using a scintillation liquid microscint 0, Packard.

T1 sequence (Q63380 1-617): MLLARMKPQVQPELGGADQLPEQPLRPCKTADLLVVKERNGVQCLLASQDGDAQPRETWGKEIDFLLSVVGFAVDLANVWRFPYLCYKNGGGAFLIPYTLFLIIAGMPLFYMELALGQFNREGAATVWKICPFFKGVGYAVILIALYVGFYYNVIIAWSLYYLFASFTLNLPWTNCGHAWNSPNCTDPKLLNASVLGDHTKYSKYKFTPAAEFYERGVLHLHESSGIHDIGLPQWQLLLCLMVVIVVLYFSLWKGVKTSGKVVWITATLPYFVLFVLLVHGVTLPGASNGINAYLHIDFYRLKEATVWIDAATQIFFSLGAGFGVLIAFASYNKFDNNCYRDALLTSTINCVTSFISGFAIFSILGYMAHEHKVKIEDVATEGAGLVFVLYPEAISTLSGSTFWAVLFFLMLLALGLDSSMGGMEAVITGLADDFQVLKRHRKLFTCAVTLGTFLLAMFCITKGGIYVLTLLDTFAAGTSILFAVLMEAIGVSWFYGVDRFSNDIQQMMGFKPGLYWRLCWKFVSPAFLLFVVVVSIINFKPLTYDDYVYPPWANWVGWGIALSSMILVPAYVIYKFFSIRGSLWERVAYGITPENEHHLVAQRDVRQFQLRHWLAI

| Structure (SMILES) | inhibition at 10 µM [1] [%] | inhibition at 10 µM [2] [%] | inhibition at 10 µM ([1]; initial test at 10 μM in duplicate) [%] |
| --- | --- | --- | --- |
| CN(C)CCCN1c2ccccc2CCc2ccccc21 [imipramine] | < 50 | < 50 | – |
| Fc1ccc(C(OCCN2CCN(CCCc3ccccc3)CC2)c2ccc(F)cc2)cc1 [GBR 12909] | – | – | < 50 |
| CNCCCC1c2ccccc2C=Cc2ccccc21 [protriptyline] | – | < 50 | – |
